Several values for one entry are separate records, joined by “and”; a condition that tells them apart may be missing. Identical values can stand only once. Like-named read-outs stand apart in the source and are kept apart here.
Legend:
[1] = system: cytochrome P450 enzymes, including CYP2C8 and CYP3A4/5; experiment: In vitro metabolism studies; assay type: in vitro ADME; details: preliminary results
[2] = system: advanced or metastatic ER+ breast cancer (MBC); details: for Median PFS / Events (PFS): all arms on fulvestrant; for HR (PFS): GDC-0941 vs placebo, both on fulvestrant
[3] = for Discontinued GDC-0941/placebo: Non-PD, patients (%): events unrelated to disease progression, all arms on fulvestrant
[4] = All luminal A/B typed patients (N 74/72)
[5] = PIK3CA Mutation Status Positive
[6] = PIK3CA Mutation Status Wild Type
[7] = PR+ subgroup of PAM50-typed patients (N 50/52)
[8] = 340 mg dose in combination with fulvestrant

What does the source list for `CS(=O)(=O)N1CCN(Cc2cc3nc(-c4cccc5[nH]ncc45)nc(N4CCOCC4)c3s2)CC1` [GDC-0941, 4-(2-(1H-indazol-4-yl)-6-((4-(methylsulfonyl)piperazin-1-yl)methyl)thieno[3,2-d]pyrimidin-4-yl)morpholine]?
in vitro metabolism [1]: partially metabolized by multiple Phase I cytochrome P450 enzymes, including CYP2C8 and CYP3A4/5; Median PFS ([2]; All Patients (ITT)): 6.2 Months; HR (PFS) [2, 4]: 0.81; Events (PFS) [2, 4]: 33/39; Median PFS [2, 4]: 6.18/5.09 months; Median PFS ([2]; Baseline ECOG Score 0): 6.6 Months; Median PFS ([2]; Baseline ECOG Score 1): 5.0 Months; Median PFS ([2]; Bone Only Non-Measureable Disease at Baseline No): 5.0 Months; Events (PFS) ([2]; LumA (N 46/52)): 15/27; Events (PFS) ([2]; LumB (N 28/20)): 18/12; Median PFS ([2]; LumB (N 28/20)): 3.7 months and 3.71/3.55 months; HR (PFS) ([2]; LumB): 1.05; Median PFS ([2]; Measurable Disease at Baseline (Derived) Yes): 5.0 Months; Median PFS ([2]; Num of Previous Therapies in Metastatic Setting 0): 6.6 Months; Median PFS ([2]; Num of Previous Therapies in Metastatic Setting 1): 6.2 Months; Median PFS ([2]; Num of Previous Therapies in Metastatic Setting 3+): 3.6 Months; Median PFS ([2]; PIK3CA Helical Domain Mutation Status Positive): 7.3 Months; Median PFS ([2]; PIK3CA Helical Domain Mutation Status Wild Type): 6.2 Months; Median PFS ([2]; PIK3CA Kinase Domain Mutation Status Positive): 6.2 Months; Median PFS ([2]; PIK3CA Kinase Domain Mutation Status Wild Type): 6.6 Months; Median PFS [2, 5]: 6.2 Months; Median PFS [2, 6]: 5.8 Months; Median PFS ([2]; PR Status Negative): 5 Months; Median PFS ([2]; PR Status Negative, listed as GDC0941): 5.0 Months; Median PFS ([2]; PR Status Positive (n=116)): 7.2 Months; Median PFS ([2]; PR Status Unknown): 2.9 Months; HR (PFS) [2, 7]: 0.47; Events (PFS) [2, 7]: 19/32; Median PFS [2, 7]: 7.16/3.68 months; Events (PFS) ([2]; PR+, LumA (N 34/39)): 9/25; HR (PFS) ([2]; PR+, LumA (n=73)): 0.31; Events (PFS) ([2]; PR+, LumB (N 16/13)): 10/7; Median PFS ([2]; PR+, LumB (N 16/13)): 3.91/3.32 months; HR (PFS) ([2]; PR+, LumB): 0.92; Events (PFS) ([2]; PR−, LumA (N 9/7)): 3/2; HR (PFS) ([2]; PR−, LumA): 1.75; Median PFS ([2]; Primary Resistance (Derived)): 5.0 Months; Median PFS ([2]; Primary/Secondary Resistance Unknown): 1.7 Months; Median PFS ([2]; Received Prior Adjuvant/Neo-Adjuvant Therapy No): 4.1 Months; Median PFS ([2]; Received Prior Adjuvant/Neo-Adjuvant Therapy Yes): 7.2 Months; Median PFS ([2]; Visceral Disease No): 8.2 Months; Median PFS ([2]; Visceral Disease Yes): 4.1 Months; Overall improvement of median PFS vs placebo group ([2]; patients positive for both the estrogen and progesterone receptor): over 15 weeks; Patients who experienced a dose modification for an adverse event [3, 8]: 66%; Rate of discontinuation for non-PD events [3, 8]: 31%; Tolerability [3, 8]: acceptable tolerability profile; Discontinued GDC-0941/placebo: Non-PD, patients (%) [3]: 28 (31%); Urinary tract infection, All Grades, patients (%) ([3]; human, in vivo): 9 (10%); AST increased, All Grades, patients (%) ([3]; n = 89, with fulvestrant): 11 (12%); AST increased, Grade ≥3, patients (%) ([3]; n = 89, with fulvestrant): 3 (3%); Abdominal pain, All Grades, patients (%) ([3]; n = 89, with fulvestrant): 9 (10%); Abdominal pain, Grade ≥3, patients (%) ([3]; n = 89, with fulvestrant): 2 (2%); Alopecia, All Grades, patients (%) ([3]; n = 89, with fulvestrant): 10 (11%); Arthralgia, All Grades, patients (%) ([3]; n = 89, with fulvestrant): 11 (12%); Constipation, All Grades, patients (%) ([3]; n = 89, with fulvestrant): 14 (16%); Cough, All Grades, patients (%) ([3]; n = 89, with fulvestrant): 14 (15%); Decreased appetite, All Grades, patients (%) ([3]; n = 89, with fulvestrant): 20 (23%); Decreased appetite, Grade ≥3, patients (%) ([3]; n = 89, with fulvestrant): 1 (1%); Diarrhea, All Grades, patients (%) ([3]; n = 89, with fulvestrant): 58 (65%); Diarrhea, Grade ≥3, patients (%) ([3]; n = 89, with fulvestrant): 5 (6%); Discontinued GDC-0941/placebo: Adverse Events, patients (%) ([3]; n = 89, with fulvestrant): 16 (18%); Discontinued fulvestrant for non-PD, patients (%) ([3]; n = 89, with fulvestrant): 15 (17%); Dry skin, All Grades, patients (%) ([3]; n = 89, with fulvestrant): 9 (10%); Dysgeusia, All Grades, patients (%) ([3]; n = 89, with fulvestrant): 35 (39%); Dyspepsia, All Grades, patients (%) ([3]; n = 89, with fulvestrant): 10 (11%); Dyspneoa, All Grades, patients (%) ([3]; n = 89, with fulvestrant): 10 (11%); Fatigue, All Grades, patients (%) ([3]; n = 89, with fulvestrant): 36 (40%); Fatigue, Grade ≥3, patients (%) ([3]; n = 89, with fulvestrant): 5 (6%); Headache, All Grades, patients (%) ([3]; n = 89, with fulvestrant): 12 (14%); Headache, Grade ≥3, patients (%) ([3]; n = 89, with fulvestrant): 1 (1%); Hot flush, All Grades, patients (%) ([3]; n = 89, with fulvestrant): 12 (13%); Hyperglycemia, All Grades, patients (%) ([3]; n = 89, with fulvestrant): 16 (18%); Hyperglycemia, Grade ≥3, patients (%) ([3]; n = 89, with fulvestrant): 4 (5%); Injection site pain, All Grades, patients (%) ([3]; n = 89, with fulvestrant): 10 (11%); Mucosal inflammation, All Grades, patients (%) ([3]; n = 89, with fulvestrant): 9 (10%); Muscle spasms, All Grades, patients (%) ([3]; n = 89, with fulvestrant): 10 (11%); Nausea, All Grades, patients (%) ([3]; n = 89, with fulvestrant): 48 (54%); Nausea, Grade ≥3, patients (%) ([3]; n = 89, with fulvestrant): 2 (2%); Pruritus, All Grades, patients (%) ([3]; n = 89, with fulvestrant): 11 (12%); Pruritus, Grade ≥3, patients (%) ([3]; n = 89, with fulvestrant): 1 (1%); Pyrexia, All Grades, patients (%) ([3]; n = 89, with fulvestrant): 12 (13%); Stomatitis, All Grades, patients (%) ([3]; n = 89, with fulvestrant): 16 (18%); Stomatitis, Grade ≥3, patients (%) ([3]; n = 89, with fulvestrant): 2 (2%); Vomiting, All Grades, patients (%) ([3]; n = 89, with fulvestrant): 24 (27%); Vomiting, Grade ≥3, patients (%) ([3]; n = 89, with fulvestrant): 2 (2%)

Which results are given for `C[C@]12CC[C@@H]3c4ccc(O)cc4C[C@@H](CCCCCCCCC[S+]([O-])CCCC(F)(F)C(F)(F)F)[C@H]3[C@@H]1CC[C@@H]2O` (stereo partly drawn) [fulvestrant, (7α,17β)-7-{9-[(4,4,5,5,5-pentafluoropentyl)sulfinyl]nonyl}estra-1,3,5(10)-triene-3,17-diol, reference compound]?
Median PFS ([2]; All Patients (ITT)): 3.8 Months; Median PFS ([2]; Luminal A subgroup (n=98)): 5.26 months; Median PFS [2, 5]: 5.1 Months; Median PFS [2, 6]: 3.6 Months; Median PFS ([2]; PR Status Positive (n=116)): 3.7 Months; Median PFS ([2]; PR-positive and Luminal A (n=73)): 5.7 months; Response rate on the basis of local assessment ([2]; all patients): 5%; Response rate ([2]; patients with PIK3CA-mutant tumors): 3%; Response rate ([2]; patients without a detectable PIK3CA-mutant tumor): 5%; Discontinued GDC-0941/placebo: Non-PD, patients (%) [3]: 10 (13%)

From patent US10004748B2, “Methods of treating PR-positive, luminal A breast cancer with PI3K inhibitor, pictilisib” (Genentech, Inc., priority 2014, dated 2018)
